Experimental findings from US20230365571A1, “COMPOUNDS AND COMPOSITIONS AS Sppl2a INHIBITORS” (Novartis AG, priority 2020, published 2023) are described below.

In assay [1] the target is T1, human SPPL2a (Homo sapiens, UniProt Q8TCT8).
T1 sequence (Q8TCT8 26-520): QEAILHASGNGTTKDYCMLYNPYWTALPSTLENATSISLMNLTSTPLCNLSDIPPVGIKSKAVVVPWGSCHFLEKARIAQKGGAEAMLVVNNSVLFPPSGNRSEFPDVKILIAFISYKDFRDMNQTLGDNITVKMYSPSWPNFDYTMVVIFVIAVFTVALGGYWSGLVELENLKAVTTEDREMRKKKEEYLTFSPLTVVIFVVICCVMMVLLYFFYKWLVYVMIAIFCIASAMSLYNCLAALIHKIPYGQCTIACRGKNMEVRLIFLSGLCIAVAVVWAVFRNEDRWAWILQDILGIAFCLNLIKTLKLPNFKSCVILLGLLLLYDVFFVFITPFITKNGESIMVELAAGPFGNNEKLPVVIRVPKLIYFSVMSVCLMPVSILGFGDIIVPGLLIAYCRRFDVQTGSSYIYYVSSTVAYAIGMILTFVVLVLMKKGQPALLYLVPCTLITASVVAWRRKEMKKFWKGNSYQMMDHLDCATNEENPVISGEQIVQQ
The assay can be described thus: Sppl2a TL (translocation) imaging assay in U-2 OS cells. On the set-up: expressed in transfected cells. The note with it: U-2 OS cells expressing human SPPL2a and EGFP-TNFα(aa1-76) NTF substrate; 24 h. The assay is classed as cell-based. The method, boiled down:
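U-2 OS cells stably expressing human SPPL2a plus doxycycline-induced EGFP-TNFα(aa1-76) NTF, treated 24 h at 37 °C with inhibitor (100 μM–1 nM, 11 points, 0.9% DMSO, 5 μg/mL doxycycline). Imaging of nuclear-minus-cytoplasmic EGFP intensity; % inhibition versus 0.5 μM LY-411,575 and DMSO, IC50 by nonlinear regression; CC50 from cell count.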

Assay [2] has as its target T1, human SPPL2a. The assay is described as follows: Sppl2a RGA (reporter gene assay) in HEK293 cells. The class given is cell-based. Also noted: expressed in transfected cells; host or cells: HEK293 (transient). The note with it: NT-TNF-VP16-Gal4 substrate, Gal4-luciferase reporter, 24 h. The method, boiled down:
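Cleavage of a membrane-bound TNF N-terminal–VP16-Gal4 substrate drives Gal4-luciferase expression in transiently transfected HEK293 cells also expressing human SPPL2a. Compounds incubated 24 h, 37 °C, 5% CO2; luminescence read, normalized and plotted against concentration for IC50.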

In general, IC50 refers to the concentration at which inhibition is half-maximal.

Turning to `CCc1cc(-c2cc(NC(=O)C[C@@H](C)C(=O)N[C@@H]3C(=O)N4CCCN4Cc4ccccc43)n(C)n2)on1` [Example 86, (R)-NA-(3-(3-Ethylisoxazol-5-yl)-1-methyl-1H-pyrazol-5-yl)-2-methyl-N^1-((S)-11-oxo-2,3,10,11-tetrahydro-1H,5H-benzo[d]pyrazolo [1,2-a][1,2]diazepin-10-yl)succinamide], the values for the concentration for half-maximal inhibition (IC50) against human SPPL2a [1] and at human SPPL2a [2] were 10 nM and 4 nM, respectively.

As for `CC[C@H](CNC(=O)c1sc(-c2cc(C)no2)nc1C)C(=O)N[C@@H]1C(=O)N2CCCN2Cc2ccccc21` [Example 20, 4-Methyl-2-(3-methylisoxazol-5-yl)-N-((R)-2-(((S)-11-oxo-2,3,10,11-tetrahydro-1H,5H-benzo[d]pyrazolo [1,2-a][1,2]diazepin-10-yl)carbamoyl)butyl) thiazole-5-carboxamide], the 50% inhibitory concentration (IC50) came to 12 nM against human SPPL2a [1] and 220 nM at human SPPL2a [2].

As to `Cc1cc(-c2nc(C)c(C(=O)NC[C@H](C(=O)N[C@@H]3C(=O)N4CCCN4C(=O)c4ccccc43)C3CC3)s2)on1` [Example 41, N-((R)-2-Cyclopropyl-3-(((S)-5,11-dioxo-2,3,10,11-tetrahydro-1H,5H-benzo[d]pyrazolo [1,2-a][1,2]diazepin-10-yl)amino)-3-oxopropyl)-4-methyl-2-(3-methylisoxazol-5-yl)thiazole-5-carboxamide], the IC50 against human SPPL2a [1] worked out at 59 nM; against human SPPL2a [2], 37 nM.

For the molecule `C[C@H](Cc1nc2cccc(C(F)(F)F)c2[nH]1)C(=O)N[C@@H]1C(=O)N2CCCN2Cc2ccccc21` [Example 114, (R)-2-methyl-N-((S)-11-oxo-2,3,10,11-tetrahydro-1H,5H-benzo[d]pyrazolo[1,2-a][1,2]diazepin-10-yl)-3-(7-(trifluoromethyl)-1H-benzo[d]imidazol-2-yl)propanamide], the IC50 is 548 nM on human SPPL2a [1] and 63 nM against human SPPL2a [2].

Regarding `C[C@H](CC(=O)Nc1sc(-c2ccn(C)n2)nc1Cl)C(=O)N[C@@H]1C(=O)N2CCCN2Cc2ccccc21` [Example 73, (R)-N^4-(4-Chloro-2-(1-methyl-1H-pyrazol-3-yl)thiazol-5-yl)-2-methyl-N^1-((S)-11-oxo-2,3,10,11-tetrahydro-1H,5H-benzo[d]pyrazolo [1,2-a][1,2]diazepin-10-yl)succinamide], the IC50 was 4 nM against human SPPL2a [1] and 25 nM against human SPPL2a [2].

For the molecule `Cc1cccc(C)c1NC(=O)c1cc(NC(=O)C[C@@H](C)C(=O)N[C@@H]2C(=O)N3CCCN3Cc3ccccc32)n(C)n1` [Example 110], the IC50 stood at 15 nM against human SPPL2a [1] and 20 nM against human SPPL2a [2].

`C[C@H](Cc1nc2ccccc2[nH]1)C(=O)N[C@@H]1C(=O)N2CCCN2Cc2ccccc21` [Example 111, (R)-3-(1H-benzo[d]imidazol-2-yl)-2-methyl-N—((S)-11-oxo-2,3,10,11-tetrahydro-1H,5H-benzo[d]pyrazolo[1,2-a][1,2]diazepin-10-yl)propanamide]: the IC50 on human SPPL2a [1] was 666 nM; on human SPPL2a [2], 77 nM.

As for `Cc1nc(Cl)c(C(=O)NC[C@H](C(=O)N[C@@H]2C(=O)N3CCCN3Cc3c(F)cccc32)C2CC2)s1` [Example 55, 4-Chloro-N-((R)-2-cyclopropyl-3-(((S)-6-fluoro-11-oxo-2,3,10,11-tetrahydro-1H,5H-benzo[d]pyrazolo [1,2-a][1,2]diazepin-10-yl)amino)-3-oxopropyl)-2-methylthiazole-5-carboxamide], the 50% inhibitory concentration (IC50) on human SPPL2a [1] was found to be 163 nM; against human SPPL2a [2], 152 nM.

For the molecule `CC(C)NC(=O)c1cc(NC(=O)C[C@H](C(=O)N[C@@H]2C(=O)N3CCCN3Cc3ccccc32)C2CC2)n(C)n1` [Example 67, (S)-2-Cyclopropyl-N^4-(3-(isopropylcarba-moyl)-1-methyl-1H-pyrazol-5-yl)-N^1-((S)-11-oxo-2,3,10,11-tetrahydro-1H,5H-benzo[d]pyrazolo [1,2-a][1,2]diazepin-10-yl)succinamide], the results for the IC50 against human SPPL2a [1] and against human SPPL2a [2] were 2 nM and 5 nM, respectively.

As to `Cc1nc(C2=CCOCC2)sc1C(=O)NC[C@H](C(=O)N[C@@H]1C(=O)N2CCCN2Cc2ccccc21)C(F)(F)F` [Example 44, 2-(3,6-Dihydro-2H-pyran-4-yl)-4-methyl-N-((R)-3,3,3-trifluoro-2-(((S)-11-oxo-2,3,10,11-tetrahydro-1H,5H-benzo[d]pyrazolo [1,2-a][1,2]diazepin-10-yl)carbamoyl)pro-pyl)thiazole-5-carboxamide], the IC50 on human SPPL2a [1] was 67 nM; at human SPPL2a [2], 27 nM.

`Cc1c(F)ccc2nc(C[C@@H](C)C(=O)N[C@@H]3C(=O)N4CCCN4Cc4ccccc43)[nH]c12` [Example 116, (R)-3-(6-fluoro-7-methyl-1H-benzo[d]imidazol-2-yl)-2-methyl-N-((S)-11-oxo-2,3,10,11-tetrahydro-1H,5H-benzo[d]pyrazolo[1,2-a][1,2]diazepin-10-yl)propanamide]: the IC50 amounted to 116 nM against human SPPL2a [1] and 13 nM on human SPPL2a [2].

For the molecule `Cc1noc(C)c1C(=O)NC[C@H](C(=O)N[C@@H]1C(=O)N2CCCN2C(=O)c2ccccc21)C(F)(F)F` [Example 48, N-((R)-2-(((S)-5,11-Dioxo-2,3,10,11-tetrahydro-1H,5H-benzo[d]pyrazolo [1,2-a][1,2]diazepin-10-yl)carbamoyl)-3,3,3-trifluoropropyl)-3,5-dimethylisoxazole-4-carboxamide], the half-inhibitory concentration (IC50) was 85 nM at human SPPL2a [1] and 22 nM at human SPPL2a [2].

On to `O=C(NC[C@H](C(=O)N[C@@H]1C(=O)N2CCCN2Cc2c(F)cccc21)C1CC1)c1sc(C2CC2)nc1Cl` [Example 54, 4-Chloro-2-cyclopropyl-N-((R)-2-cyclopropyl-3-(((S)-6-fluoro-11-oxo-2,3,10,11-tetrahydro-1H,5H-benzo[d]pyrazolo [1,2-a][1,2]diazepin-10-yl)amino)-3-oxopropyl)thiazole-5-carboxamide], for which the IC50 against human SPPL2a [1] is 129 nM; against human SPPL2a [2] it was 48 nM.

Consider `C[C@H](CC(=O)Nc1cc(C(=O)NCCC(F)(F)F)nn1C)C(=O)N[C@@H]1C(=O)N2CCCN2Cc2ccccc21` [Example 84, (R)-2-Methyl-N^4-(1-methyl-3-((3,3,3-trifluoropropyl)carbamoyl)-1H-pyrazol-5-yl)-N^1-((S)-11-oxo-2,3,10,11-tetrahydro-1H,5H-benzo[d]pyrazolo [1,2-a][1,2]diazepin-10-yl)succinamide], for which the IC50 against human SPPL2a [1] amounted to 9 nM; on human SPPL2a [2] it was 40 nM.

For the molecule `Cc1nc(Cc2ccccc2)sc1C(=O)NC[C@@H](C)C(=O)N[C@@H]1C(=O)N2CCCN2Cc2ccccc21` [Example 58, 2-Benzyl-4-methyl-N-((R)-2-methyl-3-oxo-3-(((S)-11-oxo-2,3,10,11-tetrahydro-1H,5H-benzo[d]pyrazolo [1,2-a][1,2]diazepin-10-yl)amino)propyl) thiazole-5-carboxamide], the concentration for half-maximal inhibition (IC50) against human SPPL2a [1] stood at 373 nM; against human SPPL2a [2] it was 194 nM.

Regarding `CCCOc1nc(C)c(C(=O)NC[C@@H](CC)C(=O)N[C@@H]2C(=O)N3CCCN3Cc3ccccc32)s1` [Example 30, 4-Methyl-N-((R)-2-(((S)-11-oxo-2,3,10,11-tetrahydro-1H,5H-benzo[d]pyrazolo [1,2-a][1,2]diazepin-10-yl)carbamoyl)butyl)-2-propoxythiazole-5-carboxamide], the IC50 against human SPPL2a [1] came to 29 nM; at human SPPL2a [2], 16 nM.

With `O=C(NC[C@H](C(=O)N[C@@H]1C(=O)N2CCCN2C(=O)c2ccccc21)C(F)(F)F)c1sc(-c2ccc(C(F)(F)F)nc2)nc1Cl` [Example 40, 4-Chloro-N-((R)-2-(((S)-5,11-dioxo-2,3,10,11-tetrahydro-1H,5H-benzo[d]pyrazolo [1,2-a][1,2]diazepin-10-yl)carbamoyl)-3,3,3-trifluoropropyl)-2-(6-(trifluoromethyl)pyridin-3-yl)thiazole-5-carboxamide], the half-inhibitory concentration (IC50) against human SPPL2a [1] worked out at 57 nM; at human SPPL2a [2] it was 42 nM.

As to `O=C(C[C@H](C(=O)N[C@@H]1C(=O)N2CC3(CC3)CN2C(=O)c2ccccc21)C1CC1)Nc1sc(-c2ccc(C(F)(F)F)nc2)nc1Cl` [Example 106, (S)-N^4-(4-Chloro-2-(6-(trifluoromethyl)pyridin-3-yl)thiazol-5-yl)-2-cyclopropyl-N^1-((S)-5,11-dioxo-10,11-dihydro-1H,3H,5H-spiro[benzo[d]pyr-azolo[1,2-a][1,2]diazepine-2,1′-cyclopropan]-10-yl)succinamide], the values for the half-maximal inhibitory concentration (IC50) against human SPPL2a [1] and against human SPPL2a [2] were 10 nM and 8 nM, respectively.

With `Cc1cnoc1C(=O)NC[C@H](C(=O)N[C@@H]1C(=O)N2CCCN2C(=O)c2ccccc21)C(F)(F)F` [Example 2, N—((R)-2-(((S)-5,11-dioxo-2,3,10,11-tetrahydro-1H,5H-benzo[d]pyrazolo[1,2-a][1,2]diazepin-10-yl)carbamoyl)-3,3,3-trifluoropropyl)-4-methylisoxazole-5-carboxamide], the IC50 turned out to be 450 nM against human SPPL2a [1] and 180 nM at human SPPL2a [2].
